From ChEMBL document CHEMBL1201862, “PubChem BioAssay data set” (2004)
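The compound was tested at five concentrations on cells cultured in 96-well plates, with a 48-hour exposure period. GI50 = concentration required for 50% inhibition of growth.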 Calls of active or inactive are those of the source. No stated cut-off is given here; in the data, active = GI50 up to about 1.1 µM and inactive = higher.

Legend:
Test in all cases: growth of human tumour cells (NCI), 48 h
LXFL 529 = system: LXFL 529
M14 = system: M14
KM-20L2 = system: KM-20L2
SK-MEL-28 = system: SK-MEL-28
DMS-273 = system: DMS-273
NCI-H226 = system: NCI-H226
SN12C = system: SN12C
HOP-62 = system: HOP-62
786-0 = system: 786-0
LOX IMVI = system: LOX IMVI
SNB-19 = system: SNB-19
K562 = system: K562
SNB-75 = system: SNB-75
RXF 393 = system: RXF 393
SNB-78 = system: SNB-78
HL-60 = system: HL-60
HCT-116 = system: HCT-116
NCI-H460 = system: NCI-H460
RPMI-8226 = system: RPMI-8226
HCC 2998 = system: HCC 2998
DLD-1 = system: DLD-1
CCRF-CEM = system: CCRF-CEM
MOLT-4 = system: MOLT-4
OVCAR-4 = system: OVCAR-4
SF-539 = system: SF-539
U-251 = system: U-251
NCI-H23 = system: NCI-H23
NCI-H522 = system: NCI-H522
SF-295 = system: SF-295
Malme-3M = system: Malme-3M
PC-3 = system: PC-3
IGROV-1 = system: IGROV-1
SK-MEL-2 = system: SK-MEL-2
T47D = system: T47D
UACC-257 = system: UACC-257
HT-29 = system: HT-29
ACHN = system: ACHN
NCI/ADR-RES = system: NCI/ADR-RES
A549 = system: A549
KM12 = system: KM12
DU-145 = system: DU-145
OVCAR-8 = system: OVCAR-8
EKVX = system: EKVX
DMS-114 = system: DMS-114
CAKI-1 = system: CAKI-1
Hs-578T = system: Hs-578T
UACC-62 = system: UACC-62
SK-OV-3 = system: SK-OV-3
SR = system: SR
OVCAR-5 = system: OVCAR-5
TK-10 = system: TK-10
HCT-15 = system: HCT-15
MDA-MB-435 = system: MDA-MB-435
HOP-92 = system: HOP-92
UO-31 = system: UO-31
SF-268 = system: SF-268
COLO 205 = system: COLO 205
MDA-N = system: MDA-N
SW-620 = system: SW-620
M19-MEL = system: M19-MEL
OVCAR-3 = system: OVCAR-3
MDA-MB-231 = system: MDA-MB-231
A498 = system: A498
MCF7 = system: MCF7
SK-MEL-5 = system: SK-MEL-5
BT-549 = system: BT-549

Measured: GI50

Cc1cnc(-c2ccccc2)o1
inactive: LXFL 529 > 100 µM | M14 > 100 µM | KM-20L2 > 100 µM | SK-MEL-28 > 100 µM | DMS-273 52.6 µM | NCI-H226 > 100 µM | SN12C > 10 µM | HOP-62 > 100 µM | 786-0 > 100 µM | LOX IMVI > 100 µM | SNB-19 > 100 µM | K562 > 100 µM | SNB-75 > 100 µM | RXF 393 > 100 µM | SNB-78 > 100 µM | HL-60 > 100 µM | HCT-116 > 100 µM | NCI-H460 > 100 µM | RPMI-8226 > 100 µM | HCC 2998 > 100 µM | DLD-1 > 100 µM | CCRF-CEM > 100 µM | MOLT-4 > 100 µM | OVCAR-4 > 100 µM | SF-539 > 100 µM | U-251 > 100 µM | NCI-H23 > 100 µM | NCI-H522 > 100 µM

CC1(c2cccc(C3CCC4(C=CC3=O)OCCO4)c2)OCCO1 (configuration not stated)
5.36 µM: HCT-15
inactive: LXFL 529 1.62 µM | SF-295 34.3 µM | Malme-3M 4.71 µM | PC-3 17.2 µM | M14 6.97 µM | IGROV-1 18.4 µM | SK-MEL-2 12.9 µM | T47D 8.49 µM | KM-20L2 4.07 µM | UACC-257 9.48 µM | SK-MEL-28 16 µM | HT-29 11.8 µM | DMS-273 10.9 µM | ACHN 4.91 µM | NCI/ADR-RES 14.5 µM | A549 18.5 µM | NCI-H226 25.9 µM | KM12 17.4 µM | DU-145 17.9 µM | OVCAR-8 13.5 µM | EKVX 19.6 µM | SN12C 14.5 µM | HOP-62 31 µM | DMS-114 1.8 µM | CAKI-1 8.61 µM | Hs-578T 15.3 µM | UACC-62 6.52 µM | SK-OV-3 30.8 µM | SR 3.12 µM | OVCAR-5 18.2 µM | TK-10 8.2 µM | 786-0 4.62 µM | LOX IMVI 11.8 µM | SNB-19 15.9 µM | K562 3.08 µM | SNB-75 16.3 µM | MDA-MB-435 13.4 µM | RXF 393 5.9 µM | SNB-78 19.4 µM | HOP-92 5.81 µM | HL-60 1.62 µM | HCT-116 4.2 µM | UO-31 6.64 µM | SF-268 17.3 µM | COLO 205 6.14 µM | NCI-H460 16.4 µM | MDA-N 10.3 µM | RPMI-8226 4.76 µM | HCC 2998 18.6 µM | DLD-1 3.35 µM | CCRF-CEM 2.49 µM | SW-620 2.9 µM | M19-MEL 5.62 µM | OVCAR-3 5.2 µM | MOLT-4 2.84 µM | OVCAR-4 7.28 µM | MDA-MB-231 13.2 µM | A498 16.9 µM | SF-539 14.8 µM | MCF7 11 µM | U-251 18.1 µM | SK-MEL-5 14.6 µM | NCI-H23 11.5 µM | NCI-H522 1.43 µM

CCCCCCCCCCCCCCCCCCNc1ccn(C2OC(CO)C(OP(=O)(O)OCC(COP(=O)(O)OCC3OC(n4cc(F)c(NCCCCCCCCCCCCCCCCCC)nc4=O)CC3O)OC(=O)CCCCCCCCCCCCCCC)C2O)c(=O)n1 (configuration not stated)
> 100 µM: HCT-15
inactive: SF-295 > 100 µM | BT-549 > 100 µM | Malme-3M > 100 µM | PC-3 > 100 µM | M14 > 100 µM | IGROV-1 > 100 µM | SK-MEL-2 > 100 µM | T47D > 100 µM | UACC-257 > 100 µM | SK-MEL-28 > 100 µM | HT-29 > 100 µM | ACHN > 100 µM | NCI/ADR-RES > 100 µM | A549 > 100 µM | NCI-H226 > 100 µM | KM12 > 100 µM | DU-145 > 100 µM | OVCAR-8 > 100 µM | EKVX > 100 µM | SN12C > 100 µM | HOP-62 > 100 µM | CAKI-1 > 100 µM | Hs-578T > 100 µM | UACC-62 > 100 µM | SK-OV-3 > 100 µM | SR > 100 µM | OVCAR-5 > 100 µM | TK-10 > 100 µM | 786-0 > 100 µM | LOX IMVI > 100 µM | SNB-19 > 100 µM | K562 3.01 µM | SNB-75 > 100 µM | MDA-MB-435 > 100 µM | RXF 393 > 100 µM | HOP-92 > 100 µM | HL-60 67.1 µM | HCT-116 > 100 µM | UO-31 > 100 µM | SF-268 > 100 µM | COLO 205 > 100 µM | NCI-H460 > 100 µM | MDA-N > 100 µM | RPMI-8226 > 100 µM | HCC 2998 > 100 µM | CCRF-CEM 95.3 µM | SW-620 > 100 µM | OVCAR-3 > 100 µM | MOLT-4 > 100 µM | OVCAR-4 > 100 µM | MDA-MB-231 > 100 µM | A498 > 100 µM | SF-539 > 100 µM | MCF7 > 100 µM | U-251 > 100 µM | SK-MEL-5 > 100 µM | NCI-H23 > 100 µM | NCI-H522 > 100 µM
